# Results: PubChem BioAssay (NCI)
#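 All cell lines were grown in 96-well plates and treated with compound for 48 hours. At the GI50, growth is halved. Definition used: TGI = concentration required for complete inhibition of growth.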
# Key:
# Assay in all cases: NCI tumour cell line growth inhibition, 48 h
# M19-MEL melanoma = test system: M19-MEL melanoma
# DMS 114 small cell lung = test system: DMS 114 small cell lung
# LXFL 529 NSCLC = test system: LXFL 529 NSCLC
# RXF-631 renal = test system: RXF-631 renal
# DLD-1 colon = test system: DLD-1 colon
# MDA-N = test system: MDA-N
# SNB-78 CNS = test system: SNB-78 CNS
# HOP-18 NSCLC = test system: HOP-18 NSCLC
# DMS 273 small cell lung = test system: DMS 273 small cell lung
# SN12K1 renal = test system: SN12K1 renal
# P388/ADR leukemia = test system: P388/ADR leukemia
# P388 leukemia = test system: P388 leukemia
Compound,TGI (M19-MEL melanoma),TGI (DMS 114 small cell lung),TGI (LXFL 529 NSCLC),TGI (DLD-1 colon),TGI (MDA-N),TGI (SNB-78 CNS),TGI (HOP-18 NSCLC),TGI (DMS 273 small cell lung),other results
O=S1c2ccccc2N=C(c2cccs2)CC1c1ccccc1O (centres undefined),> 100 µM,> 100 µM,> 100 µM,> 100 µM,,,,,TGI (RXF-631 renal): > 100 µM
O=C(Nc1ccn(C2CCC(COC(c3ccccc3)(c3ccccc3)c3ccccc3)O2)c(=O)n1)c1ccccc1 (centres undefined),,,,,10.5 µM,,,,
OCC1OC(N2CCN(C3OC(CO)C(O)C(O)C3O)CC2)C(O)C(O)C1O (centres undefined),,,,,> 100 µM,,,,
CC#CC#C/C=C1/C=CC2(CCCCO2)O1 (centres undefined),,,,,> 100 µM,,,,
NS(=O)(=O)c1ccc(NC(=O)Nc2cccc3ccccc23)cc1,,,,,> 100 µM,,,,
NC1=NN(c2ccccc2)C(=O)C1/C(=N\NC(=O)c1cc2ccccc2cc1O)C(=O)Nc1ccc(Cl)c(Cl)c1 (centres undefined),,82 µM,> 100 µM,> 100 µM,,> 100 µM,> 100 µM,40.7 µM,
COC(=O)/C(=C1\OC(=O)C(c2ccc(Cl)cc2)=C1O)c1ccc(Cl)cc1,66.2 µM,51.3 µM,87.7 µM,> 100 µM,,> 100 µM,> 100 µM,36.3 µM,
O=C1/C(=C/c2ccc(C(=O)O)cc2)CNC/C1=C\c1ccc(C(=O)O)cc1,> 100 µM,> 100 µM,> 100 µM,> 100 µM,,> 100 µM,> 100 µM,> 100 µM,TGI (RXF-631 renal): > 100 µM
C/C(COc1ccccc1)=N\NC(N)=S,> 100 µM,> 100 µM,> 100 µM,> 100 µM,,> 100 µM,,> 100 µM,
O=C(C#Cc1ccccc1)N1CCCCC1,,,,,> 100 µM,,,,
O=Cc1cc2sc(C=O)cc2s1,> 100 µM,> 100 µM,> 100 µM,> 100 µM,,> 100 µM,,> 100 µM,TGI (RXF-631 renal): > 100 µM
O=C(Nc1ccc(-c2cn3ccccc3n2)cc1)c1cc(Br)ccc1O,,,,,> 100 µM,,,,
Nc1[nH]c(=S)[nH]c(=O)c1N=Nc1c(Br)cc(S(N)(=O)=O)cc1Br,,,,,> 100 µM,,,,
CN(N=O)N1C(=O)SCC(c2ccccc2)(c2ccccc2)C1=O,,,,,> 100 µM,,,,
CC(C)(C)c1cc([Si](C)(C)C)c(C#N)c([Si](C)(C)C)c1,> 100 µM,> 100 µM,> 100 µM,> 100 µM,,> 100 µM,> 100 µM,> 100 µM,
CCn1c(C)nc([N+](=O)[O-])c1Sc1ncc[nH]1,> 100 µM,> 100 µM,> 100 µM,> 100 µM,,> 100 µM,73.8 µM,> 100 µM,TGI (RXF-631 renal): 88 µM

Compound,TGI (M19-MEL melanoma),TGI (DMS 114 small cell lung),TGI (LXFL 529 NSCLC),TGI (DLD-1 colon),TGI (MDA-N),TGI (SNB-78 CNS),TGI (HOP-18 NSCLC),TGI (DMS 273 small cell lung),other results
Cc1cc(NCCCCCCCCNc2cc(C)nc3cc(N(C)C)ccc23)c2ccc(N(C)C)cc2n1,10.8 µM,6.63 µM,16 µM,,,> 100 µM,,16.5 µM,
Clc1cc2ns[s+]c2cc1Cl,> 100 µM,> 100 µM,> 100 µM,> 56.5 µM,,> 100 µM,> 69.3 µM,> 100 µM,TGI (RXF-631 renal): > 100 µM
O=C(NNC(=O)/C(=C/c1cccc([N+](=O)[O-])c1)NC(=O)c1ccccc1)Nc1ccc(Cl)cc1,29.1 µM,26.9 µM,23.5 µM,26.7 µM,,> 100 µM,34.6 µM,26.1 µM,TGI (RXF-631 renal): 23.8 µM
CC1=NN(c2ccccc2)C(=O)C1N=Nc1ccc(Br)cc1C (centres undefined),> 100 µM,> 100 µM,> 100 µM,> 100 µM,,> 100 µM,> 100 µM,> 100 µM,TGI (RXF-631 renal): > 100 µM
O=c1[nH]c(C2CCCCC2)nc2ccc(Cl)cc12,> 100 µM,> 100 µM,> 100 µM,,,> 100 µM,,> 100 µM,
OC(CBr)C(O)C(O)C(O)CBr (centres undefined),> 100 µM,> 100 µM,,> 100 µM,> 100 µM,> 100 µM,> 100 µM,> 100 µM,TGI (SN12K1 renal): > 100 µM; TGI (P388/ADR leukemia): > 51.9 µM; TGI (P388 leukemia): > 32.4 µM
S=C1NC(c2ccccc2)NC(c2ccccc2)S1 (centres undefined),,,,,> 100 µM,,,,
C=C1CC2(CC(c3ccccc3C)OC(c3ccccc3C)C2)OC1=O (centres undefined),,,,,3.32 µM,,,,
CN1C(=O)CC(CC(=O)C2CCCCC2=O)CC1=O (centres undefined),> 100 µM,> 100 µM,> 100 µM,> 100 µM,,> 100 µM,> 100 µM,> 100 µM,
CCN(CC(O)COc1ccc2c(c1)[n+]([O-])nc(N)[n+]2[O-])C(C)=O (centres undefined),,,,,> 100 µM,,,,
COc1cc(OC)c(OC)cc1/C=C/c1ccc2ccccc2n1,,,,,> 10 µM,,,,
CCCCCCCC(=O)[O-].N.N.N.N.N.[Co+3].[O-][Cl+3]([O-])([O-])[O-],,,> 100 µM,> 100 µM,,> 100 µM,,> 100 µM,GI50 (LXFL 529 NSCLC): > 100 µM; GI50 (SNB-78 CNS): > 100 µM; GI50 (DLD-1 colon): > 100 µM; GI50 (DMS 273 small cell lung): > 100 µM
COC(=O)C1(N2CCOCC2)CCC([C@@H](c2ccccc2)C(C)[N+](=O)[O-])C1 (some centres undefined),,,,,> 100 µM,,,,
COc1ccc(C2[C@@H](Cl)C(=O)N2c2ccc(OC)cc2)cc1 (some centres undefined),> 100 µM,> 100 µM,> 100 µM,> 100 µM,,> 100 µM,,> 100 µM,
O=S(=O)(O)c1ccc([Se][Se]c2ccc(S(=O)(=O)O)cc2)cc1,> 100 µM,> 100 µM,> 100 µM,> 100 µM,,> 100 µM,> 100 µM,> 100 µM,
